Data taken from US11129840B2, “Methods for identifying novel dosing regimens” (Zavante Therapeutics, Inc., priority 2017, dated 2021).
Converted amounts (≈) assume the structure as drawn. Where two headings read alike, the source gives them in different places.

Legend:
[1] = test system: MR coagulase negative staphylococci (MR-CoNS); test: Reference agar dilution MIC, resistant SENTRY isolates; type: cell-based
Procedure: (§1) Utilizing existing interpretative criteria for the marketed oral agent (dosed at 3 g) for analysis purposes, FOS susceptibility (S) was determined for recent resistant GN and GP clinical isolates including vancomycin-resistant Enterococcus faecium (VREM) and E. faecalis (VREF); methicillin-resistant Staphylococcus aureus (MRSA) and MR coagulase negative staphylococci (MR-CoNS), Escherichia coli (EC) and Klebsiella pneumoniae (KPN) containing extended spectrum beta-lactamases (ESBL) or were carbapenem resistant (CR); and), Pseudomonas aeruginosa (PSA) non-susceptible to ceftazidime (CAZ-NS) or to meropenem (MER-NS). […] Isolates were collected from hospitalized patients in the US as a part of the SENTRY surveillance program, 2013-2015.

[2] = test system: methicillin-resistant Staphylococcus aureus (MRSA); test: as above; type: cell-based
Procedure: as §1

[3] = test system: EC with an ESBL phenotype; test: as above; type: cell-based; settings: Escherichia coli
Procedure: as §1

[4] = test system: vancomycin-resistant Enterococcus faecium (VREM); test: as above; type: cell-based
Procedure: as §1

MER-NS PSA = test: as above; type: cell-based, Pseudomonas aeruginosa
Procedure: as §1

CAZ-NS PSA = test: as above; type: cell-based, Pseudomonas aeruginosa
Procedure: as §1

EC, KPN and PSA isolates = test: Thigh infection, dose fractionation and efficacy against all 10 isolates; type: in vivo, mice; settings: 24 h; commonly in isolates with lower MICs
Procedure: 5 EC (4 ESBL), 3 KPN (2 CR), and 2 PSA were used. MICs were determined by agar dilution. […] PK/PD index determination was performed using a dose fractionation (DF) study design. […] The dose-response data was analyzed using the Emax Hill equation.

[5] = Single dose plasma PK in mice after SC administration; settings: mouse, in vivo
[6] = Phase I safety and tolerability in healthy adult subjects; type: in vivo, human
Procedure: Materials/methods: Phase I, open-label study evaluating IV (ZTI-01) and PO (Monurol®) FOS in healthy adult subjects. […] Blood and urine samples were collected serially before and through 48 hours post-dose and analyzed via LC/MS-MS. Noncompartmental analyses were performed via WinNonlin. Safety was monitored throughout the course of the study.

[7] = test system: Carbapenemase-producing Enterobacteriaceae (CPE); test: FOF MIC by ETEST; type: cell-based; settings: 37 CPE incl. 11 harboring fos(A)
Procedure: Isolates (n=37) harboring KPC, NDM, OXA, or VIM carbapenemases, with a majority also producing extended-spectrum β-lactamases, were acquired from the FDA-CDC Antimicrobial Resistant Bank. MICs for agents tested in combination with FOF were determined by broth microdilution; FOF MIC was determined by ETEST® antibiotic gradient diffusion strip prior to conducting synergy assessments between FOF and aztreonam (ATM), ceftazidime (CAZ), ceftazidime/avibactam (CZA), cefepime, ceftolozane/tazobactam (C/T), meropenem, piperacillin/tazobactam, and tobramycin (TOB). Synergistic potential for each combination was determined by crossing a FOF ETEST® strip with each of the aforementioned antibiotic strips at a 90° angle at their respective MICs with subsequent calculation of the fractional inhibitory concentration (FIC). […] Only organisms that were non-susceptible to the second drug were assessed for synergy.

Compound: C[C@@H]1O[C@@H]1P(=O)(O)O [FOS, fosfomycin]
- MIC ([1]; Staphylococcus capitis): 128 µg/mL (≈ 927 µM)
- MIC ([1]; Staphylococcus hominis): > 256 µg/mL
- No. of isolates with FOS MIC≤64 μg/mL ([1]; of 153 MR-CoNS): 72
- MIC50 ([2]; 101 MRSA): 4 µg/mL (≈ 29 µM)
- MIC90 ([2]; 101 MRSA): 8 µg/mL (≈ 57.9 µM)
- MIC ([2]; all 101 MRSA): ≤ 64 µg/mL
- MIC [3]: > 256 µg/mL
- MIC50 ([3]; 49 EC): 0.5 µg/mL (≈ 3.62 µM)
- MIC90 ([3]; 49 EC): 4 µg/mL (≈ 29 µM)
- MIC ([3]; remaining isolates, read-out: MIC values): ≤ 32 µg/mL
- MIC90 ([4]; Enterococcus faecium): 128 µg/mL (≈ 927 µM)
- MIC50 ([4]; Enterococcus faecium, 81 VREM): 64 µg/mL (≈ 464 µM)
- No. of isolates with an MIC 64 μg/mL ([4]; of 81 VREM): 63
- MIC (MER-NS PSA; Pseudomonas aeruginosa): > 256 µg/mL
- MIC90 (MER-NS PSA; Pseudomonas aeruginosa): 128 µg/mL (≈ 927 µM)
- MIC50 (MER-NS PSA; Pseudomonas aeruginosa, 42 MER-NS PSA): 64 µg/mL (≈ 464 µM)
- No. of isolates with FOS MIC≤64 μg/mL (MER-NS PSA; of 42 MER-NS PSA): 34
- MIC (CAZ-NS PSA; Pseudomonas aeruginosa): > 256 µg/mL
- MIC90 (CAZ-NS PSA; Pseudomonas aeruginosa): 128 µg/mL (≈ 927 µM)
- MIC50 (CAZ-NS PSA; Pseudomonas aeruginosa, 38 CAZ-NS PSA): 64 µg/mL (≈ 464 µM)
- No. of isolates with FOS MIC≤64 μg/mL (CAZ-NS PSA; of 38 CAZ-NS PSA): 32
- Maximal cidal activity (EC, KPN and PSA isolates): 2-3 log kill
- half-life [5]: 30.6 to 66 min
- share of TEAE that occurred after the 8 g IV dose ([6]; 8 g IV): 67.9%
- hypocalcemia (most common TEAE) ([6]; after 1 g IV): 17.9%
- bradycardia (most common TEAE) ([6]; after 8 g IV): 28.6%
- % of subjects reporting a treatment-emergent adverse event (TEAE) ([6]; all regimens): 80%
- severity of TEAEs ([6]; all regimens, resolved without sequelae): mild-moderate
- headache (most common FOS-related TEAE) ([6]; human, in vivo): 10.7%
- MIC50 [7]: > 1020 µg/mL
